Molecules are shown by their SMILES.

Common to all, as to format: biochemical
Experiment [1] addresses T1, actSHP2 (Src-homology-2-domain-containing PTP 2) (Homo sapiens, UniProt Q06124, C333P/V428C/S430C/D431C).
T1 construct: gene PTPN11; His6-tagged catalytic domain
T1 sequence (Q06124 247-517 C333P/V428C/S430C/D431C limits assumed): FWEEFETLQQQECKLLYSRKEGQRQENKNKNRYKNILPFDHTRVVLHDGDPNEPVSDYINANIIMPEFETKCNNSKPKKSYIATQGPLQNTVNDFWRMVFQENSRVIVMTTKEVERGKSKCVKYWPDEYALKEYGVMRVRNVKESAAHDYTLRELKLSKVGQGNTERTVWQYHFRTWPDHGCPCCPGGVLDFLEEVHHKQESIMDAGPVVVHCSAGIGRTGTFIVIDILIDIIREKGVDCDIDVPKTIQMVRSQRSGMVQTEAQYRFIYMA
The experiment can be described thus: pNPP phosphatase assay (activation at […]).

For the next experiment, the target named is T2, actPTPκ (PTPkappa) (Homo sapiens, UniProt Q15262, H1056C/V1053C/Y1055C).
T2 construct: gene PTPRK; His6-tagged catalytic domain, residues 870–1154
T2 sequence (Q15262 869-1153 V1053C/Y1055C/H1056C): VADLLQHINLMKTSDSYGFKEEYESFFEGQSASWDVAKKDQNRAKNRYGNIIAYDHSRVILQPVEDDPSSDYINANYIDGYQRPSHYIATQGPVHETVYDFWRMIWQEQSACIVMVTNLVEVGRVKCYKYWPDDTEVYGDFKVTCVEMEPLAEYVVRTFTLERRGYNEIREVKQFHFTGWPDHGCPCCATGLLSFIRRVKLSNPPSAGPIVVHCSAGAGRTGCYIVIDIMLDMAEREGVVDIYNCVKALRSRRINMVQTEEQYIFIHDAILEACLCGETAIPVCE
The experiment can be described thus: pNPP phosphatase assay (activation, dose dependence); also in-gel fluorescence of labelled protein in lysate.

Experiment [2] has as its target T3, actHePTP (hematopoietic PTP) (Homo sapiens, UniProt P35236, E262C/S263C/T260C).
T3 construct: gene PTPN7; His6-tagged catalytic domain, residues 65–360
T3 sequence (P35236 65-360 T260C/E262C/S263C): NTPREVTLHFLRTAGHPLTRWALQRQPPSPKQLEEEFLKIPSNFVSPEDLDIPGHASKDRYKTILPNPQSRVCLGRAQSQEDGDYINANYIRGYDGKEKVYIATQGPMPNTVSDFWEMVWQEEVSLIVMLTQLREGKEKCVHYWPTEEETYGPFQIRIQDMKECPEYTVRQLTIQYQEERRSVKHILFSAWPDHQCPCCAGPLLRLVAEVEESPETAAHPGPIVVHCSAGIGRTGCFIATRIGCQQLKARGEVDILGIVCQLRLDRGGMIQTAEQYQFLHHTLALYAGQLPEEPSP
The description is as above.

With `CC1(C)C(/C=C/C=C/C=C2/N(CCCCS(=O)(=O)O)c3ccc([As]4SCCS4)cc3C2(C)C)=[N+](CCCCS(=O)(=O)[O-])c2ccc([As]3SCCS3)cc21` [AsCy5], in experiment [1], the “pNPP phosphatase assay (activation at 1 μM)” value is “Both cyanine-derived biarsenicals, AsCy3 and AsCy5, were more successful in activating actSHP2 than FlAsH and ReAsH”. Also, the half-maximal activity concentration (AC50) (in general, the midpoint of the concentration-response curve, whichever way the signal moves) at actPTPκ (PTPkappa) was about 600 nM; in experiment [2] it was about 200 nM.

(Values after publication PMC6834593, “Chemical activation of divergent protein tyrosine phosphatase domains with cyanine-based biarsenicals” (Scientific Reports, 2019).)
